System: GEV
Assay: β-Galactosidase activity assay, PGAL1-lacZ reporter plasmid pCM64-GAL1 in DBY12100
Assay type: cell-based, S. cerevisiae
Conditions: 2 hours incubation, 1 μM or 10 μM DOC
Method: Assays were performed essentially as described in (Liu et al., 1999) with minor modifications. 5 mL of cells transformed with pCM64-GAL1 were grown to midlog phase in SC-URA medium at 30° C., then incubated at indicated temperatures for the indicated times with or without (a) 5 μL of ethanol (vehicle control), (b) 2 μL of 2.5 mM β-estradiol (Sigma) dissolved in ethanol (final concentration of 1 μM), (c) 5 μL of 1 mM DOC (deoxycorticosterone; Sigma) dissolved in ethanol (final concentration of 1 μM), or (d) 5 μL of 10 mM DOC dissolved in ethanol (final concentration of 10 μM). Cells (1 mL) were harvested by centrifugation, washed once with sterile H2O, and resuspended in 700 μl of Z buffer (100 mM sodium phosphate, pH 7.0, 10 mM KCl, 1 mM MgSO4, 50 mM β-mercaptoethanol). 50 μl of chloroform and 50 μl of 0.1% SDS were added, and the cell suspension was vortex-mixed at top speed for 30 seconds followed by addition of 200 μl of 4 mg/ml ONPG (ortho-nitrophenyl-β-galactoside; Sigma) was added to each sample and incubated at room temperature until pale yellow color appeared. […] After clarification by centrifugation, the supernatant was diluted, and A420 was measured within the linear response range. Specific β-galactosidase activity was calculated as follows: (A420×1000)/(A600×(volume of cells examined in ml)×(time of incubation in minutes)) and reported in Miller units. […]

Compound: C[C@]12CC[C@H]3[C@@H](CCC4=CC(=O)CC[C@@]43C)[C@@H]1CC[C@@H]2C(=O)CO [deoxycorticosterone]
- induction of GEV (lacZ activity): not induced
